According to patent US10828315B2 (Madrigal Pharmaceuticals, Inc., priority 2013, dated 2020):
Several values for one entry are separate records, joined by “and”; a condition that tells them apart may be missing. Identical values can stand only once. Like-named read-outs stand apart in the source and are kept apart here. Blank lines part the entries; values can stand above or below the compound they belong to.

Tests used:
HER2 [1] = experiment: HER2 degradation in BT-474 cells (Example 3, Methods 1 and 2); assay type: cell-based, human
Source text: This example illustrates how a HER2 degradation assay may be used as a test to determine and select Hsp90-targeting moieties suitable for use in SDC-TRAPs of the invention, and further illustrates the ability of SDC-TRAPs to target cells preferentially expressing Hsp90. Such a test may further be used to determine the Hsp90 binding ability of SDC-TRAPs of the invention, as well as through competitive binding assays and cell-based Hsp90 client protein degradation assays known in the art.
After treatment, each cytoplasmic sample is prepared from 1×10^6 cells by incubation of cell lysis buffer (#9803, Cell Signaling Technology) on ice for 10 minutes. The resulting supernatant used as the cytosol fractions is dissolved with sample buffer for SDS-PAGE and run on a SDS-PAGE gel, blotted onto a nitrocellulose membrane by using semi-dry transfer. Non-specific binding to nitrocellulose is blocked with 5% skim milk in TBS with 0.5% Tween at room temperature for 1 hour, then probed with anti-HER2/ErB2 mAb (rabbit IgG, #2242, Cell Signaling) and anti-Tubulin (T9026, Sigma) as housekeeping control protein. HRP-conjugated goat anti-rabbit IgG (H+L) and HRP-conjugated horse anti-mouse IgG (H+L) are used as secondary Ab (#7074#7076, Cell Signaling) and LumiGLO reagent, 20× Peroxide (#7003, Cell Signaling) is used for visualization. The Hsp90 client protein HER2 is degraded when cells are treated with Hsp90-targeting moieties or SDC-TRAPs of the invention.
BT-474 cells are plated in the interior 60 wells of a 96 well black clear bottom plate (20,000 cells/well) in DMEM medium, with DMEM media in the surrounding 36 wells, and incubated at 37° C. with 5% CO2 overnight. On the second day, concentration response curve source plates are produced (10 point, 3-fold dilution of compounds in DMSO) followed by a 1:30 dilution in an intermediate dilution plate containing DMEM. Compound is transferred from the intermediate plate to the cell plate at a dilution of 1:10. The cells are then incubated at 37° C. with 5% CO2 for 24 hours.
Cells are then fixed in 4% phosphate-buffered paraformaldehyde for 30 minutes at room temperature and then permeabilized by washing five times with 0.1% Triton X-100 in PBS for 5 minutes at room temperature on a shaker. […] Cells are washed five times with 0.1% Tween-20 in PBS for 5 minutes at room temperature on a shaker and incubated with fluorescently-labeled secondary antibody (LI-COR, #926-32211) diluted 1:1000 in blocking buffer, and DRAQ5 nuclear stain (Biostatus Limited, # DRAQ5) diluted 1:10,000, at room temperature on a shaker for 1 hour. Cells are washed 5 times with 0.1% Tween-20 in PBS for 5 minutes at room temperature on a shaker and imaged on a LI-COR Odyssey imaging station. The raw data is normalized to DRAQ5 and the HER2 EC50 is calculated using XLfit™.

HER2 [2] = experiment: HER2 degradation assay with BT-474 cell line (Example 12, FACS); assay type: cell-based, human
[3] = system: human breast cancer cell line BT-474; experiment: Cytotoxicity assay (CellTiter-Glo, 72 h), BT-474; assay type: cell-based; details: read-out: Cytotoxicity (IC50, nM) BT-474
[4] = system: human urinary bladder cancer cell line RT-112; experiment: Cytotoxicity assay (CellTiter-Glo, 72 h), RT-112; assay type: cell-based; details: read-out: Cytotoxicity (IC50, nM) RT-112
[5] = system: human urinary bladder cancer cell line SW780; experiment: Cytotoxicity assay (CellTiter-Glo, 72 h), SW780; assay type: cell-based; details: read-out: Cytotoxicity (IC50, nM) SW-780
[6] = mouse, plasma, 1 h
[7] = Mouse plasma stability protocol, up to 1 h (Examples 16-18)
[8] = Artificial membrane permeability assay (PAMPA); details: incubation 5 h, first table
[9] = % Remaining of parent after 1 h incubation in mouse plasma at 37° C. (10 μM)
[10] = Tissue Distribution Data for SDC-TRAP-0098, Time (h) 0.083
[11] = Tissue Distribution Data for SDC-TRAP-0098, Time (h) 1
[12] = Tissue Distribution Data for SDC-TRAP-0098, Time (h) 6
[13] = Tissue Distribution Data for SDC-TRAP-0098, Time (h) 24

Compound: CC(C)c1cc(-c2nnc(O)n2-c2ccc3c(ccn3CCOCCN(C)C(=O)CCCc3nc4cc(N(CCCl)CCCl)ccc4n3C)c2)c(O)cc1O [SDC-TRAP-0040, 4-(5-(bis(2-chloroethyl)amino)-1-methyl-1H-benzo[d]imidazol-2-yl)-N-(2-(2-(5-(3-(2,4-dihydroxy-5-isopropylphenyl)-5-hydroxy-4H-1,2,4-triazol-4-yl)-1H-indol-1-yl)ethoxy)ethyl)-N-methylbutanamide]
IC50 (HER2 [1]): 4740 nM | IC50 (HER2 [2]; BT-474 cells, overnight): 4740 nM

% Remaining (1 h) ([6]; 10 µM): 3.97%
Compound: CC(C)c1cc(-c2nnc(O)n2-c2ccc(CN3CCN(C(=O)ONC(=O)CCCCCCC(=O)Nc4ccccc4)CC3)cc2)c(O)cc1O [SDC-TRAP-0117, N1-((4-(4-(3-(2,4-dihydroxy-5-isopropylphenyl)-5-hydroxy-4H-1,2,4-triazol-4-yl)benzyl)piperazine-1-carbonyl)oxy)-N8-phenyloctanediamide]
IC50 ([3]; BT-474, 72 hours): 452 nM | IC50 ([4]; RT-112, 72 hours): 152 nM | IC50 ([5]; SW780, 72 hours): 284 nM

Compound: CCNC(=O)c1nnc(-c2cc(C(C)C)c(O)cc2O)n1-c1ccc(C(=O)N2CCN(c3cc(C)c(OC(=O)Nc4cccc5c4CN(C4CCC(=O)NC4=O)C5=O)c(C)c3)CC2)cc1 (stereo not drawn) [SDC-TRAP-0178, 4-(4-(4-(3-(2,4-dihydroxy-5-isopropylphenyl)-5-(ethylcarbamoyl)-4H-1,2,4-triazol-4-yl)benzoyl)piperazin-1-yl)-2,6-dimethylphenyl (2-(2,6-dioxopiperidin-3-yl)-1-oxoisoindolin-4-yl)carbamate]
IC50 (HER2 [2]): 170 nM and 91 nM | IC50 (HER2 [2]; BT-474 cells, overnight): 91 nM | IC50 ([3]; BT-474, 72 h): 37 nM | IC50 ([4]; RT-112, 72 h): 29 nM | IC50 ([5]; SW780, 72 h): > 10000 nM | Plasma Conc. (after SDC-TRAP-0178, 1 h): 217000 nM | Tumor Conc. (after SDC-TRAP-0178, 1 h): 12.8 nmol/g of tissue | Tumor/Plasma Ratio (after SDC-TRAP-0178, 1 h): 0.0589 | Plasma Conc. (after SDC-TRAP-0178, 6 h): 4510 nM | Tumor Conc. (after SDC-TRAP-0178, 6 h): 7.17 nmol/g of tissue | Tumor/Plasma Ratio (after SDC-TRAP-0178, 6 h): 1.59 | Plasma Conc. (after SDC-TRAP-0178, 24 h): 28 nM | Tumor Conc. (after SDC-TRAP-0178, 24 h): 2.81 nmol/g of tissue | Tumor/Plasma Ratio (after SDC-TRAP-0178, 24 h): 100 | Plasma Conc. (after SDC-TRAP-0178, 48 h): 241 nM | Tumor Conc. (after SDC-TRAP-0178, 48 h): 1.01 nmol/g of tissue | Tumor/Plasma Ratio (after SDC-TRAP-0178, […]): 0.0179 | % Remaining (1 h) [7, 9]: 82.0% | % Remaining (1 h) ([7]; mouse plasma, 37° C., 10 μM): 82.0%

Compound: C=CCNC1=C2C[C@@H](C)C[C@H](OC)[C@H](O)[C@@H](C)/C=C(\C)[C@H](OC(N)=O)[C@@H](OC)/C=C\C=C(/C)C(=O)NC(=CC1=O)C2=O [17-AAG, reference compound]
degradation of HER2 (western blot) (HER2 [1]; 0.5 μM, overnight): partial degradation of HER2

% Remaining (1 h) ([6]; 10 µM): 96.5% | % Remaining (1 h) ([6]; 10 μM): 96.5%
Compound: CC(C)c1cc(-c2nnc(O)n2-c2ccc(CN3CCN(C(=O)c4ccc(CCc5c[nH]c6nc(N)[nH]c(=O)c56)cc4)CC3)cc2)c(O)cc1O [SDC-TRAP-0068, 2-amino-5-(4-(4-(4-(3-(2,4-dihydroxy-5-isopropylphenyl)-5-hydroxy-4H-1,2,4-triazol-4-yl)benzyl)piperazine-1-carbonyl)phenethyl)-3H-pyrrolo[2,3-d]pyrimidin-4(7H)-one]
IC50 ([3]; BT-474, 72 hours): 70 nM | IC50 ([4]; RT-112, 72 hours): 74 nM | IC50 ([5]; SW780, 72 hours): 202 nM

Compound: CCNC(=O)c1nnc(-c2cc(C(C)C)c(O)cc2O)n1-c1ccc2c(c1)CN(Cc1cc(OC)c(OC(=O)Nc3cccc4c3CN(C3CCC(=O)NC3=O)C4=O)c(OC)c1)C2 (stereo not drawn) [SDC-TRAP-0196, 4-((5-(3-(2,4-dihydroxy-5-isopropylphenyl)-5-(ethylcarbamoyl)-4H-1,2,4-triazol-4-yl)isoindolin-2-yl)methyl)-2,6-dimethoxyphenyl (2-(2,6-dioxopiperidin-3-yl)-1-oxoisoindolin-4-yl)carbamate]
IC50 (HER2 [2]): 89 nM | IC50 ([3]; BT-474, 72 h): 17 nM | IC50 ([4]; RT-112, 72 h): 31 nM | IC50 ([5]; SW780, 72 h): > 10000 nM | Mass Retention [8]: 22.3% | % Remaining (1 h) [7, 9]: 66.2%

Compound: CCc1c2c(nc3ccc(O)cc13)-c1cc3c(c(=O)n1C2)COC(=O)C3(CC)OC(=O)N(C)CCn1ccc2cc(-n3c(O)nnc3-c3cc(C(C)C)c(O)cc3O)ccc21 (stereo not drawn) [SDC-TRAP-0038, 4,11-diethyl-9-hydroxy-3,14-dioxo-3,4,12,14-tetrahydro-1H-pyrano[3′,4′:6,7]indolizino[1,2-b]quinolin-4-yl (2-(5-(3-(2,4-dihydroxy-5-isopropylphenyl)-5-hydroxy-4H-1,2,4-triazol-4-yl)-1H-indol-1-yl)ethyl)(methyl)carbamate]
IC50 (HER2 [1]): > 5000 nM | IC50 (HER2 [2]): > 5000 nM

Compound: CC(C)c1cc(-c2nnc(O)n2-c2ccc3c(ccn3CCN(C)C(=O)CCCc3nc4cc(N(CCCl)CCCl)ccc4n3C)c2)c(O)cc1O [SDC-TRAP-0039, (5-(bis(2-chloroethyl)amino)-1-methyl-1H-benzo[d]imidazol-2-yl)-N-(2-(5-(3-(2,4-dihydroxy-5-isopropylphenyl)-5-hydroxy-4H-1,2,4-triazol-4-yl)-1H-indol-1-yl)ethyl)-N-methylbutanamide]
IC50 (HER2 [1]): 2940 nM | IC50 (HER2 [2]; BT-474 cells, overnight): 2920 nM

Compound: COc1ccc(-c2cnoc2-c2cc(OC)c(OC)c(OC)c2)cc1OC(=O)N1CCN(Cc2ccc(-n3c(O)nnc3-c3cc(C(C)C)c(O)cc3O)cc2)CC1 [SDC-TRAP-0098, 2-Methoxy-5-(5-(3,4,5-trimethoxyphenyl)isoxazol-4-yl)phenyl-4-(4-(3-(2,4-dihydroxy-5-isopropylphenyl)-5-hydroxy-4H-1,2,4-triazol-4-yl)benzyl) piperazine-1-carboxylate]
IC50 (HER2 [2]): 232 nM | IC50 ([3]; BT-474, 72 h): 41 nM | IC50 ([4]; RT-112, 72 h): 22 nM | IC50 ([5]; SW780, 72 h): 257 nM | Tumor Conc. [10]: 5.02 nmol/g of tissue | Tumor/Plasma Ratio [10]: 0.01 | Tumor Conc. [11]: 4.62 nmol/g of tissue | Tumor/Plasma Ratio [11]: 0.62 | Tumor Conc. [12]: 3.18 nmol/g of tissue | Tumor/Plasma Ratio [12]: 8.22 | Tumor Conc. [13]: 0.920 nmol/g of tissue | Tumor/Plasma Ratio [13]: 300 | Tumor Conc. (Tissue Distribution Data for SDC-TRAP-0098, Time (h) 48): 0.182 nmol/g of tissue | % Remaining (1 h) [7, 9]: 96.0% | % Remaining (1 h) ([7]; mouse plasma, 1 h): 96.0%

Compound: CCc1c2c(nc3ccc(OC(=O)N4CCC(Cc5ccc(-n6c(O)nnc6-c6cc(C(C)C)c(O)cc6O)cc5)CC4)cc13)-c1cc3c(c(=O)n1C2)COC(=O)C3(O)CC (stereo not drawn) [SDC-TRAP-0031, 4,11-diethyl-4-hydroxy-3,14-dioxo-3,4,12,14-tetrahydro-1H-pyrano[3′,4′:6,7]indolizino[1,2-b]quinolin-9-yl 4-(4-(3-(2,4-dihydroxy-5-isopropylphenyl)-5-hydroxy-4H-1,2,4-triazol-4-yl)benzyl)piperidine-1-carboxylate]
IC50 (HER2 [1]): 2920 nM | IC50 (HER2 [2]): 1270 nM

Tumor Conc. (female, SCID, mouse, in vivo, 24 h): 0.0574 nmol/g of tissue | Tumor Conc. (female, SCID, mouse, in vivo, 48 h): 0.0143 nmol/g of tissue | Plasma Conc. (mouse, in vivo): BQL | Tumor Conc. (mouse, in vivo): BQL | Mass Retention [8]: 26.0%
Compound: Nc1cccc2c1CN(C1CCC(=O)NC1=O)C2=O (stereo not drawn) [Lenalidomide, lenalidomide, reference compound]
IC50 ([3]; BT-474, 72 hours): > 10000 nM | IC50 ([4]; RT-112, 72 hours): > 10000 nM | IC50 ([5]; SW780, 72 hours): > 10000 nM
